Like-named read-outs stand apart in the source and are kept apart here.
Tests used:
[1] = molecular target: fatty acid amide hydrolase (Homo sapiens, UniProt O00519); conditions: cited from earlier work
Nannochloris sp. [2] = experiment: Microplate assay: growth (absorbance 680 nm) and intracellular lipids (Nile Red fluorescence); format: cell-based; conditions: for % Increase based on Nile Red Fluorescence Intensity: dissolved in water, added t=day 0; for Nile Red Fluorescence % Increase: initial screening, p<0.05
CDK4/cyclin D1 = CDK4/cyclin D1 (Homo sapiens, UniProt P11802); conditions: cited from earlier work
Nannochloropsis oculata [3] = tested on: Nannochloropsis oculata
Protocol: Stock cultures were aerated by stirring with bubbling air (homemade manifold with Petco air pump, 2-4% CO2) or by orbital shaking (Thermo Scientific MAXQ 2000) at a constant speed of 150 rpm at 22±3° C. with a 16:8 hour light/dark cycle. Stocks were kept at stationary phase for use. Algae were prepared as dictated by culture center.
Compounds were selected based on reported biological activity in non-microalgae organisms. To ensure that compounds retained their quality, they were stored under advised conditions after purchasing from the manufacturer. Solutions of all assay compounds were prepared as 10 mM stock solutions by dissolving in DMSO in 2-dram amber vials and then stored in darkness −20° C. 96-well PCR plates were used to create a stock plate layout that was then transferred to the algae microplates. A plate map was used to distribute each compound to a well based on molecule name, collection number, and CAS number. For 20 μM and 200 nM assay plates, 10 mM compound stock in DMSO was diluted into plate maps of 5 mM and 50 μM assay stocks, respectively.
All materials for assay experiments were autoclaved before each use to maintain axenic algae cultures. Algae species were checked for homogeneity using a TS-100 light microscope (Nikon, Japan). […] Diluted stock solutions were made immediately prior to use for consistency and optimal plate growth. Cell density was measured on a Thermo Scientific Genesys 10S Vis Spectrophotometer (ThermoFisher, San Jose), using a 1 mL cuvette at 680 nm.
Plates were originally run in triplicate, before replicates were increased to quadruplicate, along with a separate control plate to compare growth. Due to extensive evaporation in exterior wells over time, our unique algae plate layout was designed to use the 60 interior wells out of 96 wells for the experiment. The 36 outer wells were filled with Millipore water and media to prevent evaporation and edge effects in the inner algae wells, as well as serve as blanks. The 60 wells with algae contained a total volume of 251 μL (100 μL of media+DMSO compound stock +150 μL dilute algae stock). For 20 μM and 200 nM assay plates, 10 mM compound stock in DMSO is diluted into plate maps of 5 mM and 50 μM assay stocks, respectively. […] Plates were parafilmed during growth to limit the amount of evaporation that can occur. Plates were numbered, and numerically ordered to ensure they got the same shaker space.
The shakers are kept at a constant shaking of 150 rpm. Ambient temperature is 22±3° C.

[4] = molecular target: phosphatidylinositol-specific phospholipase C (PI-PLC); conditions: cited from earlier work
[5] = tested on: fatty acid and sterol synthesis; conditions: cited from earlier work
[6] = tested on: Phaeodactylum tricornutum; experiment: 500 mL batch culture: growth, dry weight and lipid extract (gravimetric); format: cell-based; conditions: P. tricornutum, 500 mL culture; for Lipid content: dried lipid extract per dry biomass; for Change in Lipids: gravimetric, relative to averaged control without DMSO; for Specific Growth Rate: mid-exponential growth phase
Protocol: (§1) Batch cultures were grown in 500 mL Pyrex media bottles with stirring and air bubbling (homemade manifold with Petco air pump, 2-4% CO2). Incoming air was sterile filtered by Polyvent 4 disposable filters (Whatman, Kent, UK). […] To minimize bacterial contamination, all equipment and materials were autoclaved and media was added to flask in a Purifier Vertical Clean bench (Labconco, Kansas City, Mo.). […] The amount of DMSO is standardized for all experiments to 0.4%.
(§2) For all compound cultures, the 2 mL DMSO stock solution was added to media (without algae) first and mixed well. Control cultures were grown without DMSO. DMSO controls consisted of 0.04-1.0% DMSO. After the addition of algae and media, the container was plugged with a bug stopper vented closure cap and mixed thoroughly. Absorbance is measured immediately for Day 0 analysis. Afterward, absorbance was measured every 1-2 days with a cuvette (1 mL volume) on the Thermo Scientific Genesys 10S V is Spectrophotometer (ThermoFisher, San Jose) at 680 nm.
(§3) Batch cultures were also repeated in triplicate and compared to a control culture grown at the same time. Algae were harvested and lipids were extracted for gravimetric analysis.
(§4) The nonpolar algal extracts were harvested from 500 mL cultures when indicated on growth curves, a minimum of 3 days into stationary phase.
(§5) Cell density was monitored by measuring absorbance at 680 nm every 1-2 days.
(§6) 500-mL cultures were harvested 6 days into stationary phase based on absorbance values. Cells were concentrated by centrifugation and lyophilization to remove water. Nonpolar lipids were extracted by sonication and solvent (chloroform-methanol and PBS buffer). […] Changes in lipid levels for batch cultures were determined by crude lipid extract mass.

[7] = molecular target: histone lysine methyltransferase G9a (Homo sapiens, UniProt Q96KQ7); conditions: cited from earlier work
Nannochloropsis oculata [8] = experiment: Lipid composition of batch culture extracts (fatty acid saturation / PUFA by 1H NMR, MALDI-TOF, GC/MS); format: cell-based
Protocol: The nonpolar algal extracts were harvested from 500 mL cultures when indicated on growth curves, a minimum of 3 days into stationary phase. […] Cells were crushed and nonpolar lipids were extracted by sonication (Fisher Scientific Model 120 Sonic Dismembrator, ThermoFisher, San Jose) for 1 minute in chloroform, followed by chloroform-methanol extractions, washed with PBS butter, and dried under vacuum.^55-60 The crude non-polar algae extracts were then analyzed by ^1H Nuclear Magnetic Resonance (^1H NMR) for verification of TAG presence and examination of the purity of the extract (determination of level of chlorophyll). The extracts were then divided for analysis; one part for transesterification, one part to save as crude extract, and one part for SPE separation and MALDI-TOF analysis of TAGs.
Triacylglycerols can be isolated by solid-phase extraction (SPE) with 500 mg silica SPE cartridges (Silicycle, Quebec). The nonpolar extract is dissolved in 300 μL hexanes, and loaded on the SPE cartridge primed with hexanes. A mixture of 80:20:1 hexanes/diethyl ether/acetic acid was used as mobile phase to elute the TAGs.^61 SPE removes any chlorophyll in this process. Residual polar fraction containing polar lipids and chlorophyll was obtained by elution with acetone. All extracts and TAG fractions were dried under vacuum and stored under argon in amber vials at −20° C. before spectroscopic analysis. After SPE, the purified TAG fraction was reanalyzed with ^1H NMR spectroscopy for TAG characterization.
The TOF was in Reflectron mode with laser intensity from 5500-6500 Volts. Each acquisition consisted of 2500 shots with a focus mass of 900 Da, and a scan range of m/z 400-1100. Multiple acquisition scans were performed at different laser intensities to determine optimal conditions. Samples for the MALDI-TOF were diluted to 5 mg/mL in hexane, and spotted in the fast-evaporation method in a 1:2 ratio with DHB (2,5-dihydroxybenzoic acid) as the matrix. Re-spotting with methanol allowed for the matrix and sample to mix without hexane interactions, and allowed for better crystal formation. All samples on MALDI plate were allowed to dry before MS analysis. Data was normalized to base peak in all cases.
After the initial weight was recorded, the nonpolar extract set aside for transesterification was dissolved in 3.0 mL of 0.6 M sulfuric acid in methanol and stirred vigorously at 60° C. for 45 minutes.
Initial GC/MS temperature was 50° C. and end was 200° C. over at a one hour period for optimal FAME peak separation.
Peak assignment of fatty acids and their derivatives are based on NMR spectroscopic studies of previously reported algal lipid extracts^9 and comparison to standards such as olive oil (ACROS) and fatty acid mixtures.
(§7) We developed a quick and robust method to screen if the screened compound effect fatty acid saturation levels using ^1H NMR spectroscopy. The amount of saturated fatty acids (SFA), monounsaturated fatty acids (MUFAs), and polyunsaturated fatty acids (PUFAs) was determined using peak area ratios.
(§8) Calculated based on ^1H NMR integral ratios for the proton signals for the methyl group of PUFA components vs. the methyl groups of monounsaturated and saturated components.

[9] = tested on: Phaeodactylum tricornutum; experiment: Microplate assay: growth (absorbance 680 nm) and intracellular lipids (Nile Red fluorescence); format: cell-based
FABI = FABI (FAB1); cited from earlier work
microalgae [10] = experiment: Microplate assay (growth, Nile Red lipids), algae strain not stated; conditions: microplate screening; strain not given; listed as (−)-epigallocatechin gallate
Nannochloropsis oculata [11] = experiment: 500 mL batch culture: growth, dry weight and lipid extract (gravimetric); format: cell-based
Protocol: as §1, §2, §3, §4, §5, §6

Nannochloropsis salina [12] = tested on: Nannochloropsis salina
Nannochloropsis salina [13] = experiment: 500 mL batch culture: growth, dry weight and lipid extract (gravimetric); format: cell-based; conditions: for Lipid productivity / Lipid content / Change in Lipids / Specific Growth Rate: N. salina; for Lipid content: dried lipid extract per dry biomass; for Change in Lipids: gravimetric, relative to averaged control without DMSO; for Specific Growth Rate: mid-exponential growth phase
microalgae [14] = experiment: 500 mL batch culture (growth, gravimetric lipids), algae strain not stated; format: cell-based
Nannochloris sp. [15] = experiment: 500 mL batch culture: growth, dry weight and lipid extract (gravimetric); format: cell-based
Protocol: as §1, §2, §3, §4, §5, §6

Cdk2/cyclin A = Cdk2/cyclin A (Homo sapiens, UniProt P24941); conditions: CDK2/A; cited from earlier work
PTP1b = PTP1b (Homo sapiens, UniProt P18031); conditions: cited from earlier work
[16] = tested on: Phaeodactylum tricornutum
Protocol: The nonpolar algal extracts were harvested from 500 mL cultures when indicated on growth curves, a minimum of 3 days into stationary phase. […] Cells were crushed and nonpolar lipids were extracted by sonication (Fisher Scientific Model 120 Sonic Dismembrator, ThermoFisher, San Jose) for 1 minute in chloroform, followed by chloroform-methanol extractions, washed with PBS butter, and dried under vacuum.^55-60 The crude non-polar algae extracts were then analyzed by ^1H Nuclear Magnetic Resonance (^1H NMR) for verification of TAG presence and examination of the purity of the extract (determination of level of chlorophyll). […]
After the initial weight was recorded, the nonpolar extract set aside for transesterification was dissolved in 3.0 mL of 0.6 M sulfuric acid in methanol and stirred vigorously at 60° C. for 45 minutes. […]
as §7, §8

[17] = 200 nM, initial microplate screen, relative to control
[18] = Nannochloris sp., compounds tested at 20 μM
[19] = higher concentrations (>400 nM), microplate
[20] = microplate assay, multiple concentrations
[21] = 40 μM, 500 mL culture, day 6 in stationary phase
[22] = 500 mL culture, 4 μM in water, two replicates
[23] = 20 μM, initial microplate screen, relative to control
[24] = 40 μM, initial microplate screen, relative to control

Chain of CDK4/cyclin D1 (P11802 whole entry, species assumed): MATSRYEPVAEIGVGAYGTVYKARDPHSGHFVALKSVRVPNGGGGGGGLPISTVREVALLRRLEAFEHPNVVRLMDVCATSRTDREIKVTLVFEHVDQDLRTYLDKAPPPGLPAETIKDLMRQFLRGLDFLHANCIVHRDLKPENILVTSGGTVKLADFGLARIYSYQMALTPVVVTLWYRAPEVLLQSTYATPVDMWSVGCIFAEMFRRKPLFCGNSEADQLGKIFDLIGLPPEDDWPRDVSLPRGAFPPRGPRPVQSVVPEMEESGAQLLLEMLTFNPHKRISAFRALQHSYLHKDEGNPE
Chain of CDK4/cyclin D1 (P24385 whole entry partner, species assumed): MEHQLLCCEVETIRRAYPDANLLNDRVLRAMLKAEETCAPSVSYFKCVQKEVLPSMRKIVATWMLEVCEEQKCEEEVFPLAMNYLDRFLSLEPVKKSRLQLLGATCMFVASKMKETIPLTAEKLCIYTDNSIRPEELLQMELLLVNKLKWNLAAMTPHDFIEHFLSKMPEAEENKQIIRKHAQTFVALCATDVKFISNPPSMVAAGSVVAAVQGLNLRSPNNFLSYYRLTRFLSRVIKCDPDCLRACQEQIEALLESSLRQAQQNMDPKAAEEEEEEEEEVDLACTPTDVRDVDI
Chain of histone lysine methyltransferase G9a (Q96KQ7 whole entry): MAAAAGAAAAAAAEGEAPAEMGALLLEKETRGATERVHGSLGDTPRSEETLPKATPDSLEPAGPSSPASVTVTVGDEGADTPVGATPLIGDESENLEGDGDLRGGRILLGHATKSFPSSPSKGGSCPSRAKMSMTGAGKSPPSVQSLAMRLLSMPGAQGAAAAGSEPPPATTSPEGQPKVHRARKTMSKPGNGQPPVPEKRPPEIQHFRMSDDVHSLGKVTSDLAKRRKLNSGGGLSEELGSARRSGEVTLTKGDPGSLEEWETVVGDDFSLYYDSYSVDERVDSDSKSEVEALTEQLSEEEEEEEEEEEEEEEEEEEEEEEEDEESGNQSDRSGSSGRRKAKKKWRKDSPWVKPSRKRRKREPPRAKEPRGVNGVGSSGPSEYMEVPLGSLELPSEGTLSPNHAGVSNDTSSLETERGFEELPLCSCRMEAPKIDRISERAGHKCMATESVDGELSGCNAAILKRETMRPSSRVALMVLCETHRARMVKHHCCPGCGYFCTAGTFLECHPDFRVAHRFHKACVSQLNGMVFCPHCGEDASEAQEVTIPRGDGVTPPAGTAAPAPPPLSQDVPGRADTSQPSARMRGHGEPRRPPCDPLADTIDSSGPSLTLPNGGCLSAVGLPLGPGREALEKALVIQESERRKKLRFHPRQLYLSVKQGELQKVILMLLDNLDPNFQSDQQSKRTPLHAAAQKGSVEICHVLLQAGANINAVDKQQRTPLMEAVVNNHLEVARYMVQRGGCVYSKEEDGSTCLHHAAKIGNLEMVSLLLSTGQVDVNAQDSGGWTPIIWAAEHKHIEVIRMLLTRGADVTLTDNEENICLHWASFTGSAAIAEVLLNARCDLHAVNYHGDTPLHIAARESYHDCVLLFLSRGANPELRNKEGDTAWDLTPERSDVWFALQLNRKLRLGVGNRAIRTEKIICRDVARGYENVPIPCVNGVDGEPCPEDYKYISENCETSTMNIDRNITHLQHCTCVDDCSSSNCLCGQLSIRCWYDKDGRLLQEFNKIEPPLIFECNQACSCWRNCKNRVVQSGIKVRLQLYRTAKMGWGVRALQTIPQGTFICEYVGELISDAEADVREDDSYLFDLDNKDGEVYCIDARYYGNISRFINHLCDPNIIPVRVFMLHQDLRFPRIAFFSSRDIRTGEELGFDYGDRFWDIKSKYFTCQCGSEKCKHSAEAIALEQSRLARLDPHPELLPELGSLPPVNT
Chain of fatty acid amide hydrolase (O00519 whole entry): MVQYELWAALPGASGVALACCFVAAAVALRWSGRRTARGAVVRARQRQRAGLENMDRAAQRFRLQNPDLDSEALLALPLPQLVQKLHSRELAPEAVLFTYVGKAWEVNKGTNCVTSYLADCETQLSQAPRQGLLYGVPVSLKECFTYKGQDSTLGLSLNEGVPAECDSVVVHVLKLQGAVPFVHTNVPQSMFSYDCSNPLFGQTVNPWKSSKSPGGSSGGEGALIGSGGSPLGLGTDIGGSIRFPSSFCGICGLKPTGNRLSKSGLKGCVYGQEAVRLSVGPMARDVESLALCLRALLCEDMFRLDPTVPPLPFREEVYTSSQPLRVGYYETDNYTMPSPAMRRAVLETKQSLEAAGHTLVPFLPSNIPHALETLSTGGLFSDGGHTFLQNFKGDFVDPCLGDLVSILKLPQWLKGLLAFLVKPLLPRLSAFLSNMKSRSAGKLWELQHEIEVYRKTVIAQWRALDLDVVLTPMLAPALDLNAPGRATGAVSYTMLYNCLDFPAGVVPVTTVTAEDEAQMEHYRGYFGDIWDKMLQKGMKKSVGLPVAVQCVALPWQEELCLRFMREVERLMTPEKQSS
Chain of PTP1b (P18031 whole entry, species assumed): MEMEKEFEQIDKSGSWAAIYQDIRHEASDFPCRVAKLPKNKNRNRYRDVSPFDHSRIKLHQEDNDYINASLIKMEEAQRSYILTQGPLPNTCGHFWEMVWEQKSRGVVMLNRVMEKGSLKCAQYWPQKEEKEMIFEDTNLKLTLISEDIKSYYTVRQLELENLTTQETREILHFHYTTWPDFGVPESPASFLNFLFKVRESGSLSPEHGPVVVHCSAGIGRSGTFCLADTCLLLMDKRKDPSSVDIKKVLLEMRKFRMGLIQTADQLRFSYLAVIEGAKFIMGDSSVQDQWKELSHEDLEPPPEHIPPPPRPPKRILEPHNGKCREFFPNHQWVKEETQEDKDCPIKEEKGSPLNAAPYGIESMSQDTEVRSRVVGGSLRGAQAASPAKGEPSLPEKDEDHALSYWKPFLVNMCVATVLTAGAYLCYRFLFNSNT

For CCCCNC(=O)Oc1ccc(OCc2ccccc2)cc1 [FAAH Inhibitor I, 4-Benzyloxyphenyl-n-butylcarbamate], the IC50 [1] is listed as 0.396 µM, the “% Lipid increase based on Nile red fluorescence intensity” value (Nannochloris sp. [2]; Nannochloris sp., 0.6 nM, (water), t=day 0) is listed as 189% and the “% Increase based on Nile Red Fluorescence Intensity” value (“% Increase based” for short) (Nannochloris sp. [2]; Nannochloris sp., 0.6 nM) is listed as 189%. For the same molecule, the “% Increase based” value (Nannochloris sp. [2]; Nannochloris sp., 49 nM) was 160%, the “% Increase based” value (Nannochloris sp. [2]; Nannochloris sp., 440 nM) was 161% and the “% Increase based” value (Nannochloris sp. [2]; Nannochloris sp., 1.3 μM) was 152%.
In the case of COc1ccc(OC)c2c(=S)c3ccccc3[nH]c12 [CDK4 Inhibitor II NSC], the IC50 (CDK4/cyclin D1; CDK4/cyclin D1) is given as 0.2 µM.
With CCCCCCCCCCCCCCCCCCOCC(COP(=O)([O-])OCC[N+](C)(C)C)OC (stereo not shown) [ET-18-OCH3, 2-Methoxy-3-(octadecyloxy)propyl 2-(trimethylammonio)ethyl phosphate] the “% change in abs” value (Nannochloropsis oculata [3]; N. oculata, 10 μM) was 5.73%, the “% in NR fl” value (Nannochloropsis oculata [3]; N. oculata, 10 μM) was 50.05% and the “% change in abs” value (Nannochloropsis oculata [3]; N. oculata, 40 μM) was −5.90%. For the same molecule, the “% in NR fl” value (Nannochloropsis oculata [3]; N. oculata, 40 μM) was 57.25% and the IC50 [4] was 9.6 µM.
In the case of NC(=O)c1ncn([C@@H]2O[C@H](COP(=O)(O)O)[C@@H](O)[C@H]2O)c1N [AICAR, [(2R,3S,4R,5R)-5-(4-Carbamoyl-5-amino-imidazol-1-yl)-3,4-dihydroxyoxolan-2-yl]methyl dihydrogen phosphate], the “inhibitor of fatty acid and sterol synthesis (concentration)” value [5] is given as “synthesis (0.5 mM), inactivates HMG-CoA reductase”, the Lipid productivity ([6]; 120 nM) is given as 7.0 ± 0.9 mgL^−1day^−1 and the Lipid content ([6]; 120 nM) is given as 22.7 ± 1.3 % w/w. For the same molecule, the “Change in Lipids” value ([6]; 120 nM) was 45% and the “Specific Growth Rate” value ([6]; 120 nM) was 0.34 ± 0.04 day⁻¹.
For COC(=O)C=Cc1cc(O)ccc1O [Erbstatin analog, 2,5-Dihydroxymethylcinnamate], the IC50 [7] is given as 2.82 µM, the “Absorbance (percent increase)” value (Nannochloris sp. [2]; [17]) is given as −7.6% and the “Nile Red percent increase” value (Nannochloris sp. [2]; [17]) is given as 90.7%. For the same molecule, the “Nile Red Fluorescence % Increase” value (Nannochloris sp. [2]; Nannochloris sp., compounds tested at 200 nM) was 80.2% and the “Nile Red Fluorescence % Increase” value (Nannochloris sp. [2]; [18]) was 40.5%.
With O=C(O[C@@H]1Cc2c(O)cc(O)cc2O[C@@H]1c1cc(O)c(O)c(O)c1)c1cc(O)c(O)c(O)c1 [EGCG, [(2R,3R)-5,7-dihydroxy-2-(3,4,5-trihydroxy-phenyl)-3,4-dihydro-2H-chromen-3-yl] 3,4,5-trihydroxybenzoate] the “SFAs (% of total lipids)” value (Nannochloropsis oculata [8]; 4 μM, 1H NMR, Normal 24) was 57 % of total lipids, the “n3 PUFAs (% of UFAs)” value (Nannochloropsis oculata [8]; 4 μM, 1H NMR, Normal 37) was 65 % of UFAs and the “All other PUFAs and MUFAs (% of UFAs)” value (Nannochloropsis oculata [8]; 4 μM, 1H NMR, Normal 63) was 35 % of UFAs. For the same molecule, the “UFAs (% of total lipids)” value (Nannochloropsis oculata [8]; 4 μM, 1H NMR, Normal 76) was 43 % of total lipids, the “SFAs (%)” value (Nannochloropsis oculata [8]; N. oculata, 400 nM, n=1, Normal 0 ± 1) was 10% and the “MUFAs (%)” value (Nannochloropsis oculata [8]; N. oculata, 400 nM, n=1, Normal 4 ± 7) was 5%. For the same molecule, the “n3 PUFAs (%)” value (Nannochloropsis oculata [8]; N. oculata, 400 nM, n=1, Normal 28 ± 4) was 20%, the “PUFAs (%)” value (Nannochloropsis oculata [8]; N. oculata, 400 nM, n=1, Normal 96 ± 7) was 85% and the lipid increase [9, 19] was greater than 100%. For the same molecule, the “% Inc” value ([9]; increase of lipid production, P. tricornutum, best conc. 10 nM) was 45.03%, the “effect on lipid production / lipid levels” value [9, 20] was “lipid production increased” and the IC50 (FABI) was 0.2 µM. For the same molecule, the “Nile Red Fluorescence % Increase” value (Nannochloropsis oculata [3]; N. oculata, compounds tested at 200 nM, initial screening, p<0.05) was 207.5%, the “effect on lipid production / lipid levels” value (Nannochloropsis oculata [3]; [20]) was “lipid production increased” and the “increase in (intracellular) lipid levels, Nile Red” value (microalgae [10]) was “more than 100%”. For the same molecule, the Lipid productivity ([6]; 4 μM in water, two replicates) was 4.4 ± 2.4 mgL^−1day^−1, the Lipid content ([6]; 4 μM in water, two replicates) was 17.2 ± 1.3 % w/w and the “Change in Lipids” value ([6]; 4 μM in water, two replicates) was 6%. For the same molecule, the “Specific Growth Rate” value ([6]; 4 μM in water, two replicates) was 0.19 ± 0.02 day⁻¹, the “effect on growth and lipid levels” value (Nannochloropsis oculata [11]; 500 mL batch culture) was “increased growth and lipid extract levels” and the Absorbance at harvest (Nannochloropsis oculata [11]; N. oculata, 400 nM EGCG, n=4) was 1.855 ± 0.142. The Dry weight (Nannochloropsis oculata [11]; N. oculata, 400 nM EGCG, n=4) was 290.7 ± 34.5, the “Extract Weight” value (Nannochloropsis oculata [11]; N. oculata, 400 nM EGCG, n=4) was 62.3 ± 21.6 and the Lipid productivity (Nannochloropsis oculata [11]; N. oculata, 500 mL culture, 4 μM) was 4.9 ± 1.7 mgL^−1day^−1. For the same molecule, the Lipid content (Nannochloropsis oculata [11]; N. oculata, 500 mL culture, 4 μM, dried lipid extract per dry biomass) was 20.6 ± 6.9 % w/w, the “Change in Lipids” value (Nannochloropsis oculata [11]; N. oculata, 500 mL culture, 4 μM, gravimetric, relative to averaged control without DMSO) was 41% and the “Specific Growth Rate” value (Nannochloropsis oculata [11]; N. oculata, 500 mL culture, 4 μM, mid-exponential growth phase) was 0.17 ± 0.03 day⁻¹. The “effect on lipid levels” value (Nannochloropsis oculata [11]; batch culture, combined with sodium bicarbonate addition) was “increases lipid levels”, the “% Increase based” value (Nannochloropsis salina [12]; N. salina, 493 nM, DMSO delivery, added t=day 0) was 87% and the lipid increase (Nannochloropsis salina [12]; [19]) was greater than 100%. For the same molecule, the “effect on lipid production / lipid levels” value (Nannochloropsis salina [12]; [20]) was “lipid production increased”, the Absorbance at harvest (Nannochloropsis salina [13]; [21]) was 1.41 ± 0.08 and the “Dry weight” value (Nannochloropsis salina [13]; [21]) was 337.40 ± 62.55 mg. The “Extract Weight” value (Nannochloropsis salina [13]; [21]) was 94.77 ± 9.47 mg, the “Number of Cells” value (Nannochloropsis salina [13]; [21]) was 1.36E+09 and the “Recovered Weight” value (Nannochloropsis salina [13]; [21]) was 330.03 ± 78.14 mg. The “effect on growth and lipid levels” value (Nannochloropsis salina [13]; 500 mL batch culture) was “increased growth and lipid extract levels”, the Lipid productivity (Nannochloropsis salina [13]; [22]) was 7.1 ± 1.2 mgL^−1day^−1 and the Lipid content (Nannochloropsis salina [13]; [22]) was 32.4 ± 0.1 % w/w. The “Change in Lipids” value (Nannochloropsis salina [13]; [22]) was 46%, the “Specific Growth Rate” value (Nannochloropsis salina [13]; [22]) was 0.24 ± 0.01 day⁻¹ and the Lipid productivity (Nannochloropsis salina [13]; 500 mL culture, 40 μM) was 6.3 ± 2.2 mgL^−1day^−1. For the same molecule, the Lipid content (Nannochloropsis salina [13]; 500 mL culture, 40 μM) was 23.1 ± 10.6 % w/w, the “Change in Lipids” value (Nannochloropsis salina [13]; 500 mL culture, 40 μM) was 18% and the “Specific Growth Rate” value (Nannochloropsis salina [13]; 500 mL culture, 40 μM) was 0.22 ± 0.06 day⁻¹. The “effect on growth and lipid levels” value (microalgae [14]; 500 mL batch cultures (Table 30)) was “positive increases in growth and lipid levels”, the “increase of lipids by dry weight” value (microalgae [14]; 500 mL cultures (FIG. 19)) was greater than 40% and the “effect on growth and lipid levels” value (Nannochloris sp. [15]; 500 mL batch culture) was “increased growth and lipid extract levels”. For the same molecule, the Lipid productivity (Nannochloris sp. [15]; Nannochloris sp., 500 mL culture, 40 nM) was 4.3 ± 0.8 mgL^−1day^−1, the “Change in Lipids” value (Nannochloris sp. [15]; Nannochloris sp., 500 mL culture, 40 nM, gravimetric, relative to averaged control without DMSO) was 39% and the “Specific Growth Rate” value (Nannochloris sp. [15]; Nannochloris sp., 500 mL culture, 40 nM, mid-exponential growth phase) was 0.17 ± 0.03 day⁻¹. The “Nile Red percent increase” value (Nannochloris sp. [2]; 6 nM, dose-response microplate screen) was 436%, the “Nile Red percent increase” value (Nannochloris sp. [2]; 18.6 nM, dose-response microplate screen) was 199% and the “Nile Red percent increase” value (Nannochloris sp. [2]; 55 nM, dose-response microplate screen) was 107%. The “Absorbance (percent increase)” value (Nannochloris sp. [2]; [17]) was −1.0%, the “Nile Red percent increase” value (Nannochloris sp. [2]; [17]) was 92.1% and the “Absorbance (percent increase)” value (Nannochloris sp. [2]; [23]) was “+1.9%”. For the same molecule, the “Nile Red percent increase” value (Nannochloris sp. [2]; [23]) was 92.5%, the “Nile Red Fluorescence % Increase” value (Nannochloris sp. [2]; [18]) was 214.9% and the lipid increase (Nannochloris sp. [2]; [19]) was greater than 100%. For the same molecule, the “effect on lipid production / lipid levels” value (Nannochloris sp. [2]; [20]) was “lipid production increased”.
In the case of O=C1NC(=O)c2c1c1c3ccccc3[nH]c1c1[nH]c3cc(Br)ccc3c21 [CDK4 Inhibitor 3, 2-Bromo-12,13-dihydro-5H-indolo[2,3a]pyrrolo[3,4-c]carbazole-5,7(6H)-dione], the IC50 (CDK4/cyclin D1; CDK4/D1) is given as 6 µM and the IC50 (Cdk2/cyclin A) is given as greater than 200 µM.
For CCN(NO)C1=CC(=O)C(=O)C=C1 [Ethyl 3,4-dephostatin, 4-[(hydroxyamino)-ethylamino]cyclohexa-3,5-diene-1,2-dione], the “Absorbance (percent increase)” value [9, 24] was −2.4%, the “Nile Red percent increase” value [9, 24] was 115.0% and the “% increase (lipid production)” value ([9]; 0.0252-165.6 nM (H2O)) was 8-106%. For the same molecule, the “% increase (lipid production)” value ([9]; 2-18.4 nM) was 3-67%, the “% increase (lipid production)” value (Nannochloropsis oculata [3]; 0.0252-165.6, concentrations giving an increase: (none)) was “(none)” and the “% increase (lipid production)” value (Nannochloropsis salina [12]; 0.0252-165.6 nM (H2O)) was 8-61%. For the same molecule, the “% increase (lipid production)” value (Nannochloropsis salina [12]; 0.0252-165.6 nM, not marked H2O) was 8-20% and the IC50 (PTP1b) was 3.2 µM.
In the case of O=C([O-])O.[Na+] [sodium bicarbonate], the “effect on PUFA levels” value [16] is reported as “increases PUFA levels”.

Source: patent US8778643B2, “Methods for increasing lipid levels and producing triacylglycerols in algae” (priority 2012, dated 2014)
